Data on three compounds can be found in ChEMBL document CHEMBL1123948, “Synthesis and biological evaluation of poly-gamma-glutamyl metabolites of 10-deazaaminopterin and 10-ethyl-10-deazaaminopterin” (J Med Chem, 1988).

Values joined by “and” are separate entries in the source; they are usually repeats but may differ in a detail not shown here. Equal values may be shown once.

For test [1], the system named is Lacticaseibacillus casei. In words: Inhibitory activity against thymidylate synthase in Lactobacillus casei was determined (glutamate residue 6). In kind it is functional, organism-based.
Test [2] relates to Lacticaseibacillus casei. In words: Inhibitory activity against thymidylate synthase in Lactobacillus casei was determined (glutamate residue 5). In kind it is functional, organism-based.
For test [3], the target named is T1, Dihydrofolate reductase (Lactobacillus casei, UniProt P00381). The test is described as follows: Inhibitory activity against dihydrofolate reductase in Lactobacillus casei was determined (glutamate residue 2). The class given is functional, Lacticaseibacillus casei.
The subject of test [4] is Lacticaseibacillus casei. In words: Inhibitory activity against the growth of Lactobacillus casei (ATCC 7469) was determined (glutamate residue 4). In kind it is functional, organism-based.
Test [5] addresses T1, Dihydrofolate reductase. In words: Inhibitory activity against dihydrofolate reductase in Lactobacillus casei was determined (glutamate residue 5). In kind it is functional, Lacticaseibacillus casei.
Test [6] relates to Lacticaseibacillus casei. In words: Inhibitory activity against the growth of Lactobacillus casei (ATCC 7469) was determined (glutamate residue 2). In kind it is functional, organism-based.
For test [7], the system named is Lacticaseibacillus casei. In words: Inhibitory activity against thymidylate synthase in Lactobacillus casei was determined (glutamate residue 1). In kind it is functional, organism-based.
Test [8] has as its system Lacticaseibacillus casei. In words: Inhibitory activity against thymidylate synthase in Lactobacillus casei was determined (glutamate residue 2). The class given is functional, organism-based.
Test [9] has as its system Enterococcus hirae (Streptococcus faecium ATCC 8043). In words: Inhibitory activity against the growth of Streptococcus faecium (ATCC 8043) was determined (glutamate residue 6).
Test [10] addresses T1, Dihydrofolate reductase. In words: Inhibitory activity against dihydrofolate reductase in Lactobacillus casei was determined (glutamate residue 6). In kind it is functional, Lacticaseibacillus casei.
The subject of test [11] is Lacticaseibacillus casei. In words: Inhibitory activity against the growth of Lactobacillus casei (ATCC 7469) was determined (glutamate residue 1). In kind it is functional, organism-based.
Test [12] has as its system Lacticaseibacillus casei. In words: Inhibitory activity against thymidylate synthase in Lactobacillus casei was determined (glutamate residue 4). In kind it is functional, organism-based.
The target in test [13] is T1, Dihydrofolate reductase. In words: Inhibitory activity against dihydrofolate reductase in Lactobacillus casei was determined (glutamate residue 4). The class given is functional, Lacticaseibacillus casei.
Test [14] deals with Lacticaseibacillus casei. In words: Inhibitory activity against the growth of Lactobacillus casei (ATCC 7469) was determined (glutamate residue 6). The class given is functional, organism-based.
For test [15], the system named is Lacticaseibacillus casei. The test is described as follows: Inhibitory activity against the growth of Lactobacillus casei (ATCC 7469) was determined (glutamate residue 5). The class given is functional, organism-based.
Test [16] addresses T1, Dihydrofolate reductase. In words: Inhibitory activity against dihydrofolate reductase in Lactobacillus casei was determined (glutamate residue 3). The class given is functional, Lacticaseibacillus casei.
In test [17] the test system is Lacticaseibacillus casei. The test is described as follows: Inhibitory activity against the growth of Lactobacillus casei (ATCC 7469) was determined (glutamate residue 3). The class given is functional, organism-based.
Test [18] deals with Lacticaseibacillus casei. In words: Inhibitory activity against thymidylate synthase in Lactobacillus casei was determined (glutamate residue 3). In kind it is functional, organism-based.

As a reminder, the IC50 is the concentration that inhibits the measured activity by half.

T1 sequence (P00381 whole entry): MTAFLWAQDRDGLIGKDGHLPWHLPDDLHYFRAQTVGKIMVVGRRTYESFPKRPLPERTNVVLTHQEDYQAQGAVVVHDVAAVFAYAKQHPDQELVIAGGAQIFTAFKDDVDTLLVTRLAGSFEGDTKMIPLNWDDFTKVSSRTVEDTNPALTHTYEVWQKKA

Take `Nc1nc(N)c2nc(CCc3ccc(C(=O)N[C@@H](CCC(=O)O)C(=O)O)cc3)cnc2n1`: the IC50 with Lacticaseibacillus casei [1] is 2300 nM; with Lacticaseibacillus casei [2], 3500 nM; against Dihydrofolate reductase [3], 18 nM and 24 nM; in the test on Lacticaseibacillus casei [4], 3 nM; against Dihydrofolate reductase [5], 21 nM; in the test with Lacticaseibacillus casei [6], 0.09 nM. Further, the IC50 was more than 300000 nM in the test with Lacticaseibacillus casei [7]; 88000 nM in the test with Lacticaseibacillus casei [8]; more than 3000 nM in [9]; 34 nM on Dihydrofolate reductase [10]; 0.08 nM in the test on Lacticaseibacillus casei [11]; 5500 nM in the test with Lacticaseibacillus casei [12]. For the same compound, the IC50 against Dihydrofolate reductase [13] came to 20 nM; in the test on Lacticaseibacillus casei [14], 90 nM; with Lacticaseibacillus casei [15] it was 14 nM; at Dihydrofolate reductase [16], 22 nM; with Lacticaseibacillus casei [17], 0.6 nM; in the test on Lacticaseibacillus casei [18], 11000 nM.

As for `CCC(Cc1cnc2nc(N)nc(N)c2n1)c1ccc(C(=O)N[C@@H](CCC(=O)O)C(=O)O)cc1` (stereo not given in full) [EDATREXATE], the IC50 was 7400 nM in the test with Lacticaseibacillus casei [2]; 9 nM in the test with Lacticaseibacillus casei [4]; 0.16 nM with Lacticaseibacillus casei [6]; more than 300000 nM in the test on Lacticaseibacillus casei [7]; 170000 nM in the test on Lacticaseibacillus casei [8]; 0.63 nM in the test with Lacticaseibacillus casei [11]. The IC50 with Lacticaseibacillus casei [12] stood at 14000 nM; in the test with Lacticaseibacillus casei [15], 90 nM; in the test on Lacticaseibacillus casei [17] it was 1 nM; in the test on Lacticaseibacillus casei [18], 28000 nM.

Take `CN(Cc1cnc2nc(N)nc(N)c2n1)c1ccc(C(=O)N[C@@H](CCC(=O)O)C(=O)O)cc1` [METHOTREXATE]: the IC50 in the test with Lacticaseibacillus casei [1] came out at 280 nM; in the test with Lacticaseibacillus casei [2], 280 nM; in the test with Lacticaseibacillus casei [4], 0.8 nM; in the test on Lacticaseibacillus casei [6], 0.09 nM; in the test on Lacticaseibacillus casei [7], 100000 nM; in the test on Lacticaseibacillus casei [8], 6000 nM. In addition, the IC50 in test [9] was more than 8000 nM; in the test on Lacticaseibacillus casei [12] it was 180 nM; in the test with Lacticaseibacillus casei [14], 27 nM; in the test on Lacticaseibacillus casei [15] it was 2.2 nM; in the test with Lacticaseibacillus casei [17], 0.2 nM; in the test on Lacticaseibacillus casei [18], 1100 nM.
